According to US20110038952A1, “GAMBOGIC ACID GLYCOSIDE DERIVATIVES AND ANALOGS, THEIR PREPARATION METHODS AND APPLICATIONS” (priority 2007, published 2011):
Each block holds one molecule with its values, some of them ahead of it.

What was measured:
[1] = test system: human colorectal cancer cell line HT29; test: In vitro anti-cancer cell experiment (MTT), HT29; assay type: cell-based; conditions: for IC50 (50% inhibition of cell viability, MTT): HT29, P<0.05
Experimental: (§1) a. Cell lines: Human pancreatic cancer cell line Panc-1, human colorectal cancer cell line HT29 and human lung cancer cell line NCI-H460; the medium: s DMEM (Gibco BRL), containing 10% fetal calf serum (Gibco BRL) and 2 mM L-glutamine (Gibco BRL).
(§2) b. Test samples: example compounds 3, 18, 25 and 27.
(§3) The samples were dissolved in dimethyl sulfoxide (DMSO, Sigma, United States) and medium was added to the final concentration of 0.5%. Cisplatin was as positive control of (CDDP, purity 96%, from Kunming Institute of Precious Metals).
(§4) c. Method: cells were digested with trypsin and dispersed into single cells in the medium containing penicillin (25 U/ml) and streptomycin (25 μg/ml). The cells were seeded in 96-well culture plates (Corning Incorporated), at 37° C., in a humidified atmosphere with 5% CO2 present for 24 hours. The culture medium was removed, […] test compounds were added, cultured for 48 hours. Culture medium was removed and […] (MTT, USA Sigma products) was added. The result was assayed by SK601-based microplate reader (Japan Seikagaku company's products), 570 nm/630 nm optical density (OD).
(§5) Calculation of cell viability: (Experimental group OD/control OD)×100%; Positive control CDDP was treated in the same way.

[2] = Body weight of mice in the S180 sarcoma study
Source text: (§6) Test samples: example compounds 18, 24, 25, 26 and 27
(§7) Test animals: Kunming kinds of healthy mice (19-21 g), 10 mice (5 male and 5 female)/group, from Beijing Institute of Military Medical Sciences Animal Center.
(§8) Tumor strains: mice sarcoma S180 for ascites passaged from Beijing Academy of Military Medical Institute of Pharmacology.
(§9) Xenografts cultured S180 tumor cells were implanted subcutaneously into the flank region of mice and tumors were allowed to grow to the desired average size of 100 mg. The mice were randomized into control and treatment groups with 10 mice per group. The control group was injected with the vehicle used to dissolve the drug. Other groups received the test compounds (example compound 18, 24, 25, 26 and 27) and positive group, cyclophosphamide (CTX) and 5-fluorouracil (5-FU) at the dose and schedule as indicated in Table VI. Injections were I.V. via the tail vein.

[3] = test system: mice sarcoma S180; test: Growth inhibition of S180 sarcoma in mice; assay type: in vivo
Source text: as §6, §7, §8, §9

[4] = test system: Human pancreatic cancer cell line Panc-1; test: In vitro anti-cancer cell experiment (MTT), Panc-1; assay type: cell-based
Experimental: as §1, §2, §3, §4, §5

[5] = test system: human lung cancer cell line NCI-H460; test: In vitro anti-cancer cell experiment (MTT), NCI-H460; assay type: cell-based; conditions: NCI-H460, P<0.05
Experimental: as §1, §2, §3, §4, §5

[6] = Chronic toxicity, 30 days, mice
Experimental: Animals were given an injection in the tail vein with approximately 100 μl volume of compound formulation or vehicle formulation. Mice body weights were measured daily along with daily observation for 30 days.
(1) The general behavior, body weight and organ weight of animal.
(2) Blood test: white blood cells (WB), red blood cells (RB), hemoglobin (Hb), alanine aminotransferase (ALT), aspartate aminotransferase (AST), alkaline phosphatase (ALP), serum uric acid (UA), blood urea (UREA) and creatinine (Cr).
(3) Pathological examination: heart, liver, spleen, lung and kidney.

[7] = S180 mice, I.V. tail vein, 1 mg/kg
[8] = S180 mice, I.V. tail vein, 2 mg/kg
[9] = S180 mice, I.V. tail vein, 4 mg/kg
[10] = S180 mice, 24 one dose, 25 three doses, 26 three doses, 27 one dose
[11] = S180 mice, I.V. tail vein, 25 mg/kg
[12] = S180 mice, I.V. tail vein, 15 mg/kg
[13] = S180 mice, I.V. tail vein, 5 mg/kg
[14] = S180 mice, I.V. tail vein, 10 mg/kg
[15] = mice, tail vein, 2, 4 and 8 mg/kg, 30 days, vs control group
[16] = S180 mice, I.V. tail vein, 8 mg/kg
[17] = S180 mice, I.V. tail vein, 12 mg/kg

IC50 (50% inhibition of cell viability, MTT) [1]: 3.75 µg/mL
Molecule: 9,10-Dihydro-10-(N-methyl-1-naphthoylamino) gambogyl (N-methyl)-1-naphthoylamine [Example 25]
body weight/g After ad. ([2]; mouse, in vivo, iv, 1 mg/kg): 24.75 ± 2.56 g
body weight/g Before ad. ([2]; mouse, in vivo, iv, 1 mg/kg): 22.59 ± 1.36 g
body weight/g Without tumor ([2]; mouse, in vivo, iv, 1 mg/kg): 23.27 ± 2.16 g
body weight/g After ad. ([2]; mouse, in vivo, iv, 2 mg/kg): 22.75 ± 3.51 g
body weight/g Before ad. ([2]; mouse, in vivo, iv, 2 mg/kg): 22.36 ± 1.30 g
body weight/g Without tumor ([2]; mouse, in vivo, iv, 2 mg/kg): 21.69 ± 3.13 g
body weight/g After ad. ([2]; mouse, in vivo, iv, 4 mg/kg): 21.47 ± 3.69 g
body weight/g Before ad. ([2]; mouse, in vivo, iv, 4 mg/kg): 22.38 ± 1.80 g
body weight/g Without tumor ([2]; mouse, in vivo, iv, 4 mg/kg): 20.77 ± 3.37 g
Inhibition rate (%) [3, 7]: 44.6%
Tumor weight [3, 7]: 1.34 ± 0.47 g
Inhibition rate (%) [3, 8]: 58.3%
Tumor weight [3, 8]: 1.00 ± 0.34 g
Inhibition rate (%) [3, 9]: 65.2%
Tumor weight [3, 9]: 0.84 ± 0.35 g
anti-tumor efficacy (in vivo), statistical significance [3, 10]: statistically significant

IC50 (the compound concentration producing 50% inhibition of colony formation) on Panc-1 ([4]; Panc-1, P<0.05): 23.4 µg/mL
IC50 (the compound concentration producing 50% inhibition of colony formation) on NCI-H460 [5]: 6.18 µg/mL
Molecule: CC(C)=CCCC1(C)C=Cc2c(O)c3c(c(CC=C(C)C)c2O1)OC12C(=C[C@H]4CC1C(C)(C)OC2(C/C=C(/C)C(=O)OCCO)C4=O)C3=O (some centres unmarked) [Example 3, Ethylene Glycol Gambogate]

IC50 ([1]; Homo sapiens, HT-29, HT29, 48 hours, MTT, second of two HT29 columns): 92.3 µM
IC50 ([4]; Homo sapiens, Panc-1, 48 hours, MTT): 193 µM
Molecule: O=c1[nH]cc(F)c(=O)[nH]1 [Example 5-FU, 5-fluorouracil, reference compound]
body weight/g After ad. ([2]; mouse, in vivo, iv, 15 mg/kg): 28.66 ± 2.89 g
body weight/g Before ad. ([2]; mouse, in vivo, iv, 15 mg/kg): 23.07 ± 1.75 g
body weight/g Without tumor ([2]; mouse, in vivo, iv, 15 mg/kg): 27.19 ± 2.88 g
Inhibition rate (%) [3, 12]: 43.2%
Tumor weight [3, 12]: 1.37 ± .033 g

IC50 (the compound concentration producing 50% inhibition of colony formation) on NCI-H460 [5]: 4.73 µg/mL
Molecule: CCCCCN(CCCCC)C(=O)/C(C)=C\CC12OC(C)(C)C3C[C@H](C=C4C(=O)c5c(O)c6c(c(CC=C(C)C)c5OC431)OC(C)(CCC=C(C)C)C=C6)C2=O (some centres unmarked) [Example 18, Gambogyl Dipentylamine]
body weight/g After ad. ([2]; mouse, in vivo, iv, 5 mg/kg): 27.91 ± 4.08 g
body weight/g Before ad. ([2]; mouse, in vivo, iv, 5 mg/kg): 22.80 ± 1.73 g
body weight/g Without tumor ([2]; mouse, in vivo, iv, 5 mg/kg): 26.49 ± 4.62 g
body weight/g After ad. ([2]; mouse, in vivo, iv, 10 mg/kg): 26.08 ± 2.8 g
body weight/g Before ad. ([2]; mouse, in vivo, iv, 10 mg/kg): 27.32 ± 2.2 g
body weight/g Without tumor ([2]; mouse, in vivo, iv, 10 mg/kg): 25.06 ± 2.09 g
Inhibition rate (%) [3, 13]: 40.3%
Tumor weight [3, 13]: 1.44 ± 0.39 g
Inhibition rate (%) [3, 14]: 52.5%
Tumor weight [3, 14]: 1.14 ± 0.42 g

Further lines, the molecule ahead of its results:

Molecule: O=P1(N(CCCl)CCCl)NCCCO1 (centres unmarked) [CTX, cyclophosphamide, reference compound]
body weight/g Without tumor [2, 11]: 23.94 ± 2.60 g
body weight/g After ad. ([2]; S180 mice, I.V. tail vein, 25 mg/kg, after administration): 25.44 ± 2.92 g
body weight/g Before ad. ([2]; S180 mice, I.V. tail vein, 25 mg/kg, before administration): 22.64 ± 1.28 g
Inhibition rate (%) [3, 11]: 48.6%
Tumor weight [3, 11]: 1.24 ± 0.50 g

Molecule: COC(=O)/C(C)=C\CC12OC(C)(C)C3C[C@H](C=C4C(=O)c5c(OC6O[C@H](CO)[C@@H](O)[C@@H](O)[C@H]6O)c6c(c(CC=C(C)C)c5OC431)OC(C)(CCC=C(C)C)C=C6)C2=O (stereo partly drawn) [Example 24, Methyl-6-O-D-allosyl gambogate]
body weight/g After ad. ([2]; mouse, in vivo, iv, 10 mg/kg): 19.77 ± 1.88 g
body weight/g Before ad. ([2]; mouse, in vivo, iv, 10 mg/kg): 21.67 ± 1.26 g
body weight/g Without tumor ([2]; mouse, in vivo, iv, 10 mg/kg): 18.89 ± 1.45 g
Inhibition rate (%) [3, 14]: 61.0%
Tumor weight [3, 14]: 0.94 ± 0.26 g
anti-tumor efficacy (in vivo), statistical significance [3, 10]: statistically significant

Molecule: COC(=O)/C(C)=C\CC12OC(C)(C)C3C[C@H](C=C4C(=O)c5c(OC(=O)c6ccc(OC7O[C@H](CO)[C@@H](O)[C@@H](O)[C@H]7O)cc6)c6c(c(CC=C(C)C)c5OC431)OC(C)(CCC=C(C)C)C=C6)C2=O (stereo partly drawn) [Example 26, Methyl-6-(4-O-D-allosyl)benzoyl gambogate]
alanine aminotransferase (ALT) ([6]; high dose group, recovery to normal level): slightly incretion
Pathological examination: heart [6, 15]: no abnormal of heart tissue
Pathological examination: liver [6, 15]: no abnormal tissue in rat liver slices
Pathological examination: lung [6, 15]: no abnormal tissue in rat lung slices
Pathological examination: renal [6, 15]: no abnormal tissue in rat renal slices
Pathological examination: spleen [6, 15]: no abnormal tissue in rat spleen slices
toxic pathological changes of the heart, liver, spleen, lung and kidney ([6]; three dose mice groups, continuous administration for 30 days): no toxic pathological changes
body weight/g After ad. ([2]; mouse, in vivo, iv, 4 mg/kg): 23.71 ± 3.85 g
body weight/g Before ad. ([2]; mouse, in vivo, iv, 4 mg/kg): 25.89 ± 2.62 g
body weight/g Without tumor ([2]; mouse, in vivo, iv, 4 mg/kg): 22.54 ± 3.42 g
body weight/g After ad. ([2]; mouse, in vivo, iv, 8 mg/kg): 21.42 ± 0.88 g
body weight/g Before ad. ([2]; mouse, in vivo, iv, 8 mg/kg): 24.41 ± 2.28 g
body weight/g Without tumor ([2]; mouse, in vivo, iv, 8 mg/kg): 20.56 ± 0.54 g
body weight/g After ad. ([2]; mouse, in vivo, iv, 12 mg/kg): 26.71 ± 5.56 g
body weight/g Before ad. ([2]; mouse, in vivo, iv, 12 mg/kg): 25.58 ± 2.48 g
body weight/g Without tumor ([2]; mouse, in vivo, iv, 12 mg/kg): 26.07 ± 5.40 g
Inhibition rate (%) [3, 9]: 53.7%
Tumor weight [3, 9]: 1.12 ± 0.40 g
Inhibition rate (%) [3, 16]: 60.2%
Tumor weight [3, 16]: 0.96 ± 0.32 g
Inhibition rate (%) [3, 17]: 69.3%
Tumor weight [3, 17]: 0.74 ± 0.11 g
anti-tumor efficacy (in vivo), statistical significance [3, 10]: statistically significant

Molecule: CC(C)=CCCC1(C)C=Cc2c(c(CC=C(C)C)c3c(c2OC(=O)c2ccc(OC4O[C@H](CO)[C@@H](O)[C@@H](O)[C@H]4O)cc2)C(=O)C2=C[C@H]4CC5C(C)(C)OC(C/C=C(/C)C(=O)N(C)Cc6cccc7ccccc67)(C4=O)C25O3)O1 (stereo partly drawn) [Example 27, 6-(4-O-D-Allosylbenzoyl) gambogyl (N-methyl-1-naphthalene) methylamine]
IC50 (50% inhibition of cell viability, MTT) [1]: 1.19 µg/mL
body weight/g After ad. ([2]; mouse, in vivo, iv, 25 mg/kg): 20.83 ± 1.36 g
body weight/g Before ad. ([2]; mouse, in vivo, iv, 25 mg/kg): 20.90 ± 1.06 g
body weight/g Without tumor ([2]; mouse, in vivo, iv, 25 mg/kg): 19.00 ± 1.39 g
body weight/g After ad. ([2]; mouse, in vivo, iv, 30 mg/kg): 20.22 ± 2.11 g
body weight/g Before ad. ([2]; mouse, in vivo, iv, 30 mg/kg): 19.07 ± 1.40 g
body weight/g Without tumor ([2]; mouse, in vivo, iv, 30 mg/kg): 18.67 ± 2.08 g
anti-tumor efficacy (in vivo), statistical significance ([3]; mouse, in vivo): statistically significant
Inhibition rate (%) ([3]; mouse, in vivo, iv, 25 mg/kg): 32.5%
Tumor weight ([3]; mouse, in vivo, iv, 25 mg/kg): 1.63 ± 0.47 g
Inhibition rate (%) ([3]; mouse, in vivo, iv, 30 mg/kg): 37.0%
Tumor weight ([3]; mouse, in vivo, iv, 30 mg/kg): 1.52 ± 0.30 g
